Assay results: ChEMBL document CHEMBL1149524 (Bioorg Med Chem Lett, 2006)
Converted amounts (≈) assume the structure as drawn.

target: Cathepsin S (Homo sapiens, UniProt P25774); experiment: Inhibition of cathepsin S; type: single protein; settings: not given
Sequence (P25774 whole entry): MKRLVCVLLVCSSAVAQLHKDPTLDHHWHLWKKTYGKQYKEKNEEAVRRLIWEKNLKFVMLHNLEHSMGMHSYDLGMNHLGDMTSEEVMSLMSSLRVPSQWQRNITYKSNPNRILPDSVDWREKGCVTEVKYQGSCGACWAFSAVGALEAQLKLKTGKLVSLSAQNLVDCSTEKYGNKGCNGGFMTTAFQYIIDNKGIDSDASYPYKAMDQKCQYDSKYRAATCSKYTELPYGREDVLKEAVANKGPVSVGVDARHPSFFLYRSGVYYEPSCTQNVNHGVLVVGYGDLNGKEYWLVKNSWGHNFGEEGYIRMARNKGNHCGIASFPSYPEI

Row | Structure (SMILES) | Ki [nM]
1 | O=C(N[C@@H](CC1CCCCC1)C(=O)NCCNc1ccc(OC(F)(F)F)cc1)c1ccoc1 | 6
2 | C[C@@H](CNc1ccc(OC(F)(F)F)cc1)NC(=O)[C@H](CC1CCCCC1)NC(=O)[C@@H]1CCCO1 | 53
3 | CS(=O)(=O)CC[C@@H](CNc1ccc(OC(F)(F)F)cc1)NC(=O)[C@H](CC1CCCCC1)NC(=O)N1CCOCC1 | 5
4 | C[C@@H](CNc1ccc(OC(F)(F)F)cc1)NC(=O)[C@H](CC1CCCCC1)NC(=O)N1CCOCC1 | 11
5 | C[C@@H](CNc1ccc(OC(F)(F)F)cc1)NC(=O)[C@H](CC1CCCCC1)NC(=O)OC1CCOCC1 | 12
6 | C[C@@H](CNc1ccc(OC(F)(F)F)cc1)NC(=O)[C@H](CC1CCCCC1)NC(=O)C1CCOC1 (stereo partly drawn) | 21
7 | C[C@@H](CNc1ccc(OC(F)(F)F)cc1)NC(=O)[C@H](CC1CCCCC1)NC(=O)C1CCOCC1 | 12
8 | O=C(NCCNc1ccc(OC(F)(F)F)cc1)[C@H](Cc1ccccc1)NC(=O)N1CCOCC1 | 11400
9 | C[C@@H](CNc1ccc(OC(F)(F)F)cc1)NC(=O)[C@H](CC1CCCC1)NC(=O)N1CCOCC1 | 49
10 | O=C(N[C@@H](CC1CCCCC1)C(=O)NCCNc1ccc(OC(F)(F)F)cc1)c1ccco1 | 47
11 | O=C(N[C@@H](CC1CCCCC1)C(=O)NCCNc1ccc(OC(F)(F)F)cc1)C1CCOC1 (stereo partly drawn) | 213
12 | C[C@@H](CN1c2ccc(F)cc2CC1(C)C)NC(=O)[C@H](CC1CCCCC1)NC(=O)N1CCOCC1 | 111
13 | C[C@@H](CNc1ccc(OC(F)(F)F)cc1)NC(=O)[C@H](CC(C)(C)C)NC(=O)N1CCOCC1 | 93
14 | O=C(NCCNc1ccc(OC(F)(F)F)cc1)[C@H](CC1CCCCC1)NC(=O)N1CCOCC1 | 99

target: T1, Cathepsin K (Homo sapiens, UniProt P43235); experiment: Inhibition of cathepsin K; type: single protein; settings: not given
T1 sequence (P43235 whole entry): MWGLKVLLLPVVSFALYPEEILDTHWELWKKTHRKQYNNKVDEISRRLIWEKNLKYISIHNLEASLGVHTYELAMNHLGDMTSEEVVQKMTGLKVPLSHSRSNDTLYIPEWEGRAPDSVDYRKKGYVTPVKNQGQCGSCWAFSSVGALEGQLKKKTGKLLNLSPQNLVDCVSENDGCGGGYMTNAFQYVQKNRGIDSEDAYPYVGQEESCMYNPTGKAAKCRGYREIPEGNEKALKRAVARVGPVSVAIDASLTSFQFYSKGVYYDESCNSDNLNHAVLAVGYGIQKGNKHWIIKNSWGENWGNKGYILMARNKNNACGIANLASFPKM

Row | Structure (SMILES) | Ki [nM]
15 | O=C(N[C@@H](CC1CCCCC1)C(=O)NCCNc1ccc(OC(F)(F)F)cc1)c1ccoc1 | 9340
16 | C[C@@H](CNc1ccc(OC(F)(F)F)cc1)NC(=O)[C@H](CC1CCCCC1)NC(=O)[C@@H]1CCCO1 | > 30000
17 | CS(=O)(=O)CC[C@@H](CNc1ccc(OC(F)(F)F)cc1)NC(=O)[C@H](CC1CCCCC1)NC(=O)N1CCOCC1 | 139
18 | C[C@@H](CNc1ccc(OC(F)(F)F)cc1)NC(=O)[C@H](CC1CCCCC1)NC(=O)N1CCOCC1 | 1660
19 | C[C@@H](CNc1ccc(OC(F)(F)F)cc1)NC(=O)[C@H](CC1CCCCC1)NC(=O)OC1CCOCC1 | 13300
20 | C[C@@H](CNc1ccc(OC(F)(F)F)cc1)NC(=O)[C@H](CC1CCCCC1)NC(=O)C1CCOC1 (stereo partly drawn) | > 30000
21 | C[C@@H](CNc1ccc(OC(F)(F)F)cc1)NC(=O)[C@H](CC1CCCCC1)NC(=O)C1CCOCC1 | 14300
22 | O=C(NCCNc1ccc(OC(F)(F)F)cc1)[C@H](Cc1ccccc1)NC(=O)N1CCOCC1 | > 100000
23 | C[C@@H](CNc1ccc(OC(F)(F)F)cc1)NC(=O)[C@H](CC1CCCC1)NC(=O)N1CCOCC1 | 1540
24 | O=C(N[C@@H](CC1CCCCC1)C(=O)NCCNc1ccc(OC(F)(F)F)cc1)c1ccco1 | 8810
25 | O=C(N[C@@H](CC1CCCCC1)C(=O)NCCNc1ccc(OC(F)(F)F)cc1)C1CCOC1 (stereo partly drawn) | > 30000
26 | C[C@@H](CN1c2ccc(F)cc2CC1(C)C)NC(=O)[C@H](CC1CCCCC1)NC(=O)N1CCOCC1 | 13100
27 | C[C@@H](CNc1ccc(OC(F)(F)F)cc1)NC(=O)[C@H](CC(C)(C)C)NC(=O)N1CCOCC1 | 461
28 | O=C(NCCNc1ccc(OC(F)(F)F)cc1)[C@H](CC1CCCCC1)NC(=O)N1CCOCC1 | 18800

system: not listed separately; experiment: Solubility at pH 6.8; type: physicochemical; settings: buffer

Row | Structure (SMILES) | solubility [µg/mL]
29 | C[C@@H](CNc1ccc(OC(F)(F)F)cc1)NC(=O)[C@H](CC1CCCCC1)NC(=O)C1CCOC1 (stereo partly drawn) | 30 (≈ 61.8 µM)

system: Liver microsomes; experiment: Stability in rat liver microsomes; type: ADME, Microsome; settings: not given

Row | Structure (SMILES) | Stability [%]
30 | C[C@@H](CNc1ccc(OC(F)(F)F)cc1)NC(=O)[C@H](CC1CCCCC1)NC(=O)C1CCOC1 (stereo partly drawn) | 56

system: not listed separately; experiment: Half life in Wistar rat at 3 mg/kg, iv; type: ADME, organism-based; design: dose 3 mg/kg, route intravenous; settings: in vivo

Row | Structure (SMILES) | half-life [h]
31 | C[C@@H](CNc1ccc(OC(F)(F)F)cc1)NC(=O)[C@H](CC1CCCCC1)NC(=O)C1CCOC1 (stereo partly drawn) | 1.8

system: not listed separately; experiment: Clearance in Wistar rat at 3 mg/kg, iv; type: ADME, organism-based; design: dose 3 mg/kg, route intravenous; settings: in vivo

Row | Structure (SMILES) | clearance [mL/min/kg]
32 | C[C@@H](CNc1ccc(OC(F)(F)F)cc1)NC(=O)[C@H](CC1CCCCC1)NC(=O)C1CCOC1 (stereo partly drawn) | 39

system: not listed separately; experiment: Volume of distribution in Wistar rat at 3 mg/kg, iv; type: ADME, organism-based; design: dose 3 mg/kg, route intravenous; settings: in vivo, read-out: Vdss

Row | Structure (SMILES) | Vd [L/kg]
33 | C[C@@H](CNc1ccc(OC(F)(F)F)cc1)NC(=O)[C@H](CC1CCCCC1)NC(=O)C1CCOC1 (stereo partly drawn) | 2.48

system: not listed separately; experiment: Half life in Wistar rat at 10 mg/kg, po; type: ADME, organism-based; design: dose 10 mg/kg, route oral; settings: in vivo

Row | Structure (SMILES) | half-life [h]
34 | C[C@@H](CNc1ccc(OC(F)(F)F)cc1)NC(=O)[C@H](CC1CCCCC1)NC(=O)C1CCOC1 (stereo partly drawn) | 1.5

system: not listed separately; experiment: Cmax in Wistar rat at 10 mg/kg, po; type: ADME, organism-based; design: dose 10 mg/kg, route oral; settings: in vivo

Row | Structure (SMILES) | Cmax [nM]
35 | C[C@@H](CNc1ccc(OC(F)(F)F)cc1)NC(=O)[C@H](CC1CCCCC1)NC(=O)C1CCOC1 (stereo partly drawn) | 491

system: not listed separately; experiment: AUC in Wistar rat at 10 mg/kg, po; type: ADME, organism-based; design: dose 10 mg/kg, route oral; settings: plasma

Row | Structure (SMILES) | AUC [ng·h/mL]
36 | C[C@@H](CNc1ccc(OC(F)(F)F)cc1)NC(=O)[C@H](CC1CCCCC1)NC(=O)C1CCOC1 (stereo partly drawn) | 817

system: not listed separately; experiment: Bioavailability in Wistar rat at 10 mg/kg, po; type: ADME, organism-based; settings: in vivo

Row | Structure (SMILES) | bioavailability [%]
37 | C[C@@H](CNc1ccc(OC(F)(F)F)cc1)NC(=O)[C@H](CC1CCCCC1)NC(=O)C1CCOC1 (stereo partly drawn) | 19

target: Procathepsin L (Homo sapiens, UniProt P07711); settings: not given
Sequence (P07711 whole entry): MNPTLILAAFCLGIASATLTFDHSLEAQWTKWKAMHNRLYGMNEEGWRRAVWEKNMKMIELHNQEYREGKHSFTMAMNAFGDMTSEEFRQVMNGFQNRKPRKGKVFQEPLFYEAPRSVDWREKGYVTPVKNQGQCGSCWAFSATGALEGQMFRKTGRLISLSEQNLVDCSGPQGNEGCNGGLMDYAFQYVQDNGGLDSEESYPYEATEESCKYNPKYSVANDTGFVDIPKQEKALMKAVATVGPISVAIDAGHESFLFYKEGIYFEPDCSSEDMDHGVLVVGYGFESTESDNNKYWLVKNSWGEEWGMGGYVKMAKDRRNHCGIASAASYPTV

Row | Structure (SMILES) | Ki [nM]
38 | CS(=O)(=O)CC[C@@H](CNc1ccc(OC(F)(F)F)cc1)NC(=O)[C@H](CC1CCCCC1)NC(=O)N1CCOCC1 | 4
39 | C[C@@H](CNc1ccc(OC(F)(F)F)cc1)NC(=O)[C@H](CC1CCCCC1)NC(=O)C1CCOC1 (stereo partly drawn) | 4790
40 | O=C(NCCNc1ccc(OC(F)(F)F)cc1)[C@H](Cc1ccccc1)NC(=O)N1CCOCC1 | > 100000
41 | O=C(N[C@@H](CC1CCCCC1)C(=O)NCCNc1ccc(OC(F)(F)F)cc1)c1ccco1 | 1150
42 | O=C(N[C@@H](CC1CCCCC1)C(=O)NCCNc1ccc(OC(F)(F)F)cc1)C1CCOC1 (stereo partly drawn) | 7940
43 | C[C@@H](CNc1ccc(OC(F)(F)F)cc1)NC(=O)[C@H](CC(C)(C)C)NC(=O)N1CCOCC1 | 14600
